PubChem BioAssay AID248 (DTP/NCI, 2004)
“And” between values parts separate entries of the source, which are not always exact repeats. Equal values may be shown once. Toxic doses and inconclusive results are not listed. Cut-off read from the data, not from the text of the source: active = T/C of 150% or more; inactive = T/C below 125%.

Tested on: L1210 leukemia ip in BDF1 mice, survival T/C
Assay: NCI In Vivo Anticancer Drug Screen. Data for tumor model L1210 Leukemia (intraperitoneal) in B6D2F1 (BDF1) mice
Conditions: endpoint: mean survival time, higher = longer survival
Summary of the method: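 Each compound was tested against a transplantable tumor grown in mice. The endpoint was survival, with treated animals benchmarked against vehicle controls as a simple ratio.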

[1] = dose: 100.0 mg/kg/injection, schedule: Q04DX003 (ip), vehicle: Klucel (hydroxypropylcellulose) (HPC)
[2] = dose: 200.0 mg/kg/injection, schedule: Q04DX003 (ip), vehicle: Klucel (hydroxypropylcellulose) (HPC)
[3] = dose: 400.0 mg/kg/injection, schedule: Q04DX003 (ip), vehicle: Klucel (hydroxypropylcellulose) (HPC)
[4] = dose: 100.0 mg/kg/injection, schedule: Q01DX001 (ip), vehicle: saline
[5] = dose: 200.0 mg/kg/injection, schedule: Q01DX001 (ip), vehicle: saline
[6] = dose: 400.0 mg/kg/injection, schedule: Q01DX001 (ip), vehicle: saline
[7] = dose: 50.0 mg/kg/injection, schedule: Q01DX001 (ip), vehicle: saline
[8] = dose: 100.0 mg/kg/injection, schedule: Q01DX009 (ip), vehicle: Klucel (hydroxypropylcellulose) (HPC)
[9] = dose: 200.0 mg/kg/injection, schedule: Q01DX009 (ip), vehicle: Klucel (hydroxypropylcellulose) (HPC)
[10] = dose: 400.0 mg/kg/injection, schedule: Q01DX009 (ip), vehicle: Klucel (hydroxypropylcellulose) (HPC)

Measured: T/C

CCCCCCCCCCCCCCCCCCNC(=S)NC1CCCCC1
inactive: dose: 60.0 mg/kg/injection, schedule: Q01DX015 (ip), vehicle: carboxymethylcellulose (CMC) 98 % of control | dose: 120.0 mg/kg/injection, schedule: Q01DX015 (ip), vehicle: carboxymethylcellulose (CMC) 96 % of control | dose: 240.0 mg/kg/injection, schedule: Q01DX015 (ip), vehicle: carboxymethylcellulose (CMC) 96 % of control | dose: 480.0 mg/kg/injection, schedule: Q01DX015 (ip), vehicle: carboxymethylcellulose (CMC) 98 % of control

Cc1cc(C)c(NS(=O)(=O)c2ccc([N+](=O)[O-])cc2)c(C)c1
inactive: dose: 100.0 mg/kg/injection, schedule: Q04DX003 (ip), vehicle: saline with Tween-80 89 % of control | dose: 200.0 mg/kg/injection, schedule: Q04DX003 (ip), vehicle: saline with Tween-80 93 % of control | dose: 400.0 mg/kg/injection, schedule: Q04DX003 (ip), vehicle: saline with Tween-80 86 % of control

Cc1c(Cl)cc(Cl)c2ncccc12
inactive: dose: 12.5 mg/kg/injection, schedule: Q04DX003 (ip), vehicle: Klucel (hydroxypropylcellulose) (HPC) 95 % of control | dose: 25.0 mg/kg/injection, schedule: Q04DX003 (ip), vehicle: Klucel (hydroxypropylcellulose) (HPC) 86 % of control | dose: 50.0 mg/kg/injection, schedule: Q04DX003 (ip), vehicle: Klucel (hydroxypropylcellulose) (HPC) 96 % of control

CSc1nsc(N)n1
inactive: dose: 75.0 mg/kg/injection, schedule: Q01DX001 (ip), vehicle: other 102 % of control | [1] 100 % of control | dose: 150.0 mg/kg/injection, schedule: Q01DX001 (ip), vehicle: other 100 % of control | [2] 100 % of control | dose: 300.0 mg/kg/injection, schedule: Q01DX001 (ip), vehicle: other 103 % of control | [3] 107 % of control

O=C(Nc1cccc(C(=O)Nc2ccc(C3=NCCN3)cc2)c1)Nc1cccc(C(=O)Nc2ccc(C3=NCCN3)cc2)c1
inactive: dose: 15.0 mg/kg/injection, schedule: Q01DX Z (ip), vehicle: methylcellulose (MC) 94 % of control | dose: 30.0 mg/kg/injection, schedule: Q01DX Z (ip), vehicle: methylcellulose (MC) 105 % of control | dose: 60.0 mg/kg/injection, schedule: Q01DX Z (ip), vehicle: methylcellulose (MC) 100 % of control | dose: 120.0 mg/kg/injection, schedule: Q01DX Z (ip), vehicle: methylcellulose (MC) 102 % of control | dose: 125.0 mg/kg/injection, schedule: Q01DX Z (ip), vehicle: water 93 % of control | dose: 250.0 mg/kg/injection, schedule: Q01DX Z (ip), vehicle: water 102 % of control | dose: 500.0 mg/kg/injection, schedule: Q01DX Z (ip), vehicle: water 101 % of control

CC(C)(c1ccc(OCCO)cc1)c1ccc(OCCO)cc1
inactive: dose: 100.0 mg/kg/injection, schedule: Q01DX009 (ip), vehicle: saline with Tween-80 97 % of control | dose: 200.0 mg/kg/injection, schedule: Q01DX009 (ip), vehicle: saline with Tween-80 98 % of control | dose: 400.0 mg/kg/injection, schedule: Q01DX009 (ip), vehicle: saline with Tween-80 93 % of control

O=C(Nc1ccc([N+](=O)[O-])cc1Br)c1ccc(C(=O)Nc2ccc([N+](=O)[O-])cc2Br)cc1
inactive: [4] 97 % of control | [5] 105 % of control | [6] 103 % of control

CCCCN(C)C(=S)S[Te](SC(=S)N(C)CCCC)(SC(=S)N(C)CCCC)SC(=S)N(C)CCCC
inactive: [4] 95 % of control | [5] 90 % of control | [6] 93 % of control | dose: 800.0 mg/kg/injection, schedule: Q01DX001 (ip), vehicle: saline 106 % of control | dose: 1600.0 mg/kg/injection, schedule: Q01DX001 (ip), vehicle: saline 104 % of control

ClC1=C(Cl)C2(Cl)C3C4C=CC(C4)C3N1C2(Cl)Cl (configuration not stated)
inactive: dose: 50.0 mg/kg/injection, schedule: Q01DX001 (ip), vehicle: saline with Tween-80 98 % of control | dose: 100.0 mg/kg/injection, schedule: Q01DX001 (ip), vehicle: saline with Tween-80 95 % of control

C[C@]12CC[C@H]3[C@@H](CC[C@]4(O)C[C@@H](O)CC[C@]34CO)[C@@]1(O)CC[C@@H]2C1=CC(=O)OC1
inactive: [7] 106 % of control | [4] 100 % of control | [5] 100 % of control

N#CCCCN=[N+]=[N-]
inactive: dose: 37.5 mg/kg/injection, schedule: Q04DX003 (ip), vehicle: saline 104 % of control

c1ccc2c(c1)ccn1cnnc21
inactive: [7] 97 % of control | [4] 101 % of control | [5] 109 % of control

CC(=O)OC1CCSc2ccccc21 (configuration not stated)
inactive: dose: 50.0 mg/kg/injection, schedule: Q01DX001 (ip), vehicle: carboxymethylcellulose (CMC) 95 % of control | dose: 100.0 mg/kg/injection, schedule: Q01DX001 (ip), vehicle: carboxymethylcellulose (CMC) 93 % of control | dose: 200.0 mg/kg/injection, schedule: Q01DX001 (ip), vehicle: carboxymethylcellulose (CMC) 104 % of control | dose: 400.0 mg/kg/injection, schedule: Q01DX001 (ip), vehicle: carboxymethylcellulose (CMC) 90 % of control

O=C1NCCCN1C1OC(CO)C(O)C1O (configuration not stated)
inactive: dose: 100.0 mg/kg/injection, schedule: Q01DX005 (ip), vehicle: saline 107 % of control | dose: 200.0 mg/kg/injection, schedule: Q01DX005 (ip), vehicle: saline 104 % of control

COc1ccc(OC)c(NC(=O)Oc2ccc(Cl)cc2C)c1
inactive: [1] 97 % of control | [2] 98 % of control | [3] 97 % of control

[O]=[Nb]
inactive: dose: 2.5 mg/kg/injection, schedule: Q01DX009 (ip), vehicle: saline with Tween-80 95 % of control | dose: 5.0 mg/kg/injection, schedule: Q01DX009 (ip), vehicle: saline with Tween-80 96 % of control | dose: 10.0 mg/kg/injection, schedule: Q01DX009 (ip), vehicle: saline with Tween-80 97 % of control

CCCCCCCCCCCCCCCCCC(=O)NN=C1CCCC1
inactive: [8] 95 % of control | [9] 93 % of control | [10] 107 % of control

COc1cc(N)c2c(c1O)CN(C)CC2
inactive: dose: 75.0 mg/kg/injection, schedule: Q01DX001 (ip), vehicle: saline 95 % of control | dose: 150.0 mg/kg/injection, schedule: Q01DX001 (ip), vehicle: saline 100 % of control | dose: 300.0 mg/kg/injection, schedule: Q01DX001 (ip), vehicle: saline 86 % of control

CCOC(=O)c1ccc(NC(=O)CCl)cc1
inactive: dose: 25.0 mg/kg/injection, schedule: Q01DX015 (ip), vehicle: saline 98 % of control | [7] 106 % of control | dose: 50.0 mg/kg/injection, schedule: Q01DX015 (ip), vehicle: saline 100 % of control | [4] 104 % of control | dose: 100.0 mg/kg/injection, schedule: Q01DX015 (ip), vehicle: saline 98 % of control | [5] 101 % of control | [6] 97 % of control

CB1N(c2ccccc2)B(C)N(c2ccccc2)B(C)N1c1ccccc1
inactive: [1] 103 % of control | [2] 93 % of control | [3] 97 % of control

O=C1c2ccccc2C(=O)N1CCc1ccccc1
inactive: [8] 93 % of control | [1] 97 % of control and 101 % of control | [9] 96 % of control | [2] 94 % of control and 97 % of control | [10] 95 % of control | [3] 94 % of control and 101 % of control
